Laboratory results reported in US20200390755A1, “COMPOUND FOR TREATING NERVOUS SYSTEM DISEASES AND USE THEREOF” (SHAANXI MICOT TECHNOLOGY CO., LTD., priority 2018, published 2020).
Marks after values point to notes of the source that are not given here.

The molecules below were run on N171-82Q HD mice (assay: High-altitude balance beam (5 mm) experiment 2, HD mice). Conditions: 5 mg/kg/d intragastric, 12 w.
Assay type: in vivo, mouse
Protocol: (§1) 7-week-old N171-82Q HD male mice were paired with female B6C3F1/J hybrid mice to obtain newborn mice. From 21 days of age, male mice were housed in separate cages. 0.5 cm of mouse tail tissue was removed to extract DNA to determine the genotype of the mouse, such that N171-82Q HD mice and WT mice needed for the experiment were obtained. The mice were randomly divided into WT Vehicle group (normal mice), WT test compound group (administration group of normal mice, 5 mg/kg/d, n=10), HD Vehicle group (blank group of HD mice, n=15), HD test compound group (administration groups 1-5 of HD mice, 5 mg/kg/d, n=10). The test compound was suspended in 1% CMC-Na solution and administered by intragastric administration until the end of the study. The weights of the mice were measured every week. Behavioral tests were performed at 12 weeks, 18 weeks, and 24 weeks of age to investigate motor function. At 20 weeks, 3 samples of tissue from each group were used for western blotting and immunohistochemistry. At 24 weeks, MRI scans were performed. At the end of the study, the effect of the test compound on the mortality of mice was evaluated.
(§2) The software Sigmaplot 13.0 was used for statistical analysis of the data, and the data of each group was expressed as mean standard error (x±SEM). Behavioral test results were analyzed using two-way (genotype and processing factor) ANOVA and post-ho tests, the comparison and statistics of weight data were performed using two-way (genotype and age) ANOVA of repeated measures, and mortality was counted using Kaplan-Meier method. Other measurement data were analyzed by one-way ANOVA. P<0.05 was considered statistically significant.
(§3) The motor function of mice was evaluated by the rotarod experiment and three types of balance beam experiments. The shorter the time for mouse to cross the balance beam, and the longer the time to drop, the stronger the coordination ability of the mouse.
(§4) A square balance beam with a length of 100 cm and a width of 11 mm was placed at a 45-degree angle to the horizontal ground. A black box (12×12×12 cm) was placed at the end of the balance beam, and the starting platform was illuminated by bright lights. Spacers were placed under the balance beam to provide cushioning in case that the animal falls off the beam. One hour before the test, the mice were trained to cross the beam three times at one-eighth, one-quarter, and full-length distances from the black box, respectively. If the mice stopped walking during training, they were gently pressed with long forceps on the tail to encourage movement. After the training experiment, the mice rested for at least one hour in an undisturbed environment. In the experiment, the maximum time for each mouse to cross the balance beam was set to 60 seconds. If the time for crossing the beams was greater than 60 seconds, it was recorded as 60 seconds.
a square balance beam with a length of 80 cm and a width of 5 mm was place at a height of about 50 cm from the ground. The following steps are the same as the slope balance beam experiment.

**Q.** With `O=c1cc(-c2ccc(N3CCCCC3)cc2)oc2c(O)c(O)ccc12` [Example 1, 7,8-dihydroxy-2-(4-(piperidin-1-yl)phenyl)-4H-chromen-4-one] as the molecule, how does the “Time for crossing the beams, high-altitude balance beam (5 mm)” value (“Time for crossing the beams … (5 mm)” below) read?
**A.** The value was 13.09 ± 4.39 s.

**Q.** With `COc1ccc2c(=O)cc(-c3ccc(N4CCCCC4)cc3)oc2c1OC` [Example 2, 7,8-dimethoxy-2-(4-(piperidin-1-yl)phenyl)-4H-chromen-4-one] as the molecule, how does the “Time for crossing the beams … (5 mm)” value read?
**A.** The value was 12.13 ± 4.97 s.

Same assay, conditions: 5 mg/kg/d intragastric, 18 w

**Q.** Which “Time for crossing the beams … (5 mm)” value does the source give for `O=c1cc(-c2ccc(N3CCCCC3)cc2)oc2c(O)c(O)ccc12` [Example 1, 7,8-dihydroxy-2-(4-(piperidin-1-yl)phenyl)-4H-chromen-4-one] here?
**A.** The value was 12.09 ± 3.27 s.

**Q.** Which “Time for crossing the beams … (5 mm)” value does the source give for `COc1ccc2c(=O)cc(-c3ccc(N4CCCCC4)cc3)oc2c1OC` [Example 2, 7,8-dimethoxy-2-(4-(piperidin-1-yl)phenyl)-4H-chromen-4-one] here?
**A.** The value was 13.96 ± 2.74 s.

Same assay, conditions: 5 mg/kg/d intragastric, 24 w

**Q.** Which “Time for crossing the beams … (5 mm)” value does the source give for `O=c1cc(-c2ccc(N3CCCCC3)cc2)oc2c(O)c(O)ccc12` [Example 1, 7,8-dihydroxy-2-(4-(piperidin-1-yl)phenyl)-4H-chromen-4-one] here?
**A.** The value was 13.91 ± 3.33 s.

**Q.** `COc1ccc2c(=O)cc(-c3ccc(N4CCCCC4)cc3)oc2c1OC` [Example 2, 7,8-dimethoxy-2-(4-(piperidin-1-yl)phenyl)-4H-chromen-4-one] was tested. Which “Time for crossing the beams … (5 mm)” value did it give?
**A.** Its value is 14.32 ± 5.44 s.

The molecules below were run on N171-82Q HD mice (assay: Immunohistochemical analysis of mHtt protein aggregates in neurocortex (EM48)). Conditions: 5 mg/kg/d until 25 weeks, six visual fields, n = 3.
Assay type: in vivo, mouse
Protocol: as §1
After the behavioral evaluation of the mice in each experimental group was completed and the administration continued until 25 weeks, 3 mice were taken from each group for […]. The right brain isolated from the mice was post-fixed in 4% paraformaldehyde for 24 h. The post-fixed brain tissue was put into 30% sucrose solution to allow it to sink to the bottom, and then brain slices with a thickness of 35 m were cut along the crown with a freezing microtome and placed in DPBS for storage. The stored brain slices were rinsed once with PBS, and blocked with 1 mL goat serum+9 mL PBS+1% TritonX-100 at room temperature on a shaker for 2˜3 h. After blocking, the brain slices were rinsed for 3 times with PBS, 5 min each time. Brain slices were taken out with a small brush and placed in a 24-well plate with primary antibody (anti-Huntingtin, clone mEM48, 1:25, mouse, prepared with blocking solution) for overnight incubation on a shaker in cold room at […]. After washing with PBS, brain slices were placed in a 24-well plate with secondary antibody (555, anti-mouse) for washing, and incubated on a shaker at room temperature for 2 h. After washing with PBS, brain slices was placed in a 24-well plate containing 800 μL DAPI (prepared with PBS, 1:10000) for staining on a shaker at room temperature for 10 min. The brain slices were taken out and placed in a 24-well plate containing 800 μL of PBS for washing on a shaker at room temperature for 10 min. The slide was placed flat on the experimental table with the front side facing upwards, and PBS was added dropwise on the slide to expand the brain slice in PBS. After drying, the mHtt protein was immunofluorescently stained with EM48 antibody (anti-Huntingtin) and photographed for observation.
After immunofluorescence staining of brain tissue, cells with mHtt protein aggregation in six visual fields in the right neurocortex were counted, and the average value was taken for analysis and statistics. A representative image of a neurocortex immunostained with the EM48 antibody for test compound example 1 is shown in FIG. 5, in which the scale bars are 50 μm, and the light-colored dots are cells with mHtt protein aggregation.

**Q.** `O=c1cc(-c2ccc(N3CCCCC3)cc2)oc2c(O)c(O)ccc12` [Example 1, 7,8-dihydroxy-2-(4-(piperidin-1-yl)phenyl)-4H-chromen-4-one] was tested. Which “Average number of cells with mHtt protein aggregation” value did it give?
**A.** Its value is 152.500 ± 7.920.

**Q.** For `COc1ccc2c(=O)cc(-c3ccc(N4CCCCC4)cc3)oc2c1OC` [Example 2, 7,8-dimethoxy-2-(4-(piperidin-1-yl)phenyl)-4H-chromen-4-one], which “Average number of cells with mHtt protein aggregation” value is on record?
**A.** The value was 158.449 ± 13.260.

What follows are molecules tested on N171-82Q HD mice (assay: In vivo MRI scan and brain volume measurement, HD mice). Conditions: 5 mg/kg/d, administered until 24 weeks, n = 4.
Design: species or system mouse
Protocol: as §1
The WT Vehicle group, WT test compound group, HD Vehicle group and HD test compound group were administered until 24 weeks, and 4 mice in each group were taken for in vivo MRI scanning and brain volume measurement. A 9.4 T MRI scanner equipped with three-axis gradient and animal imaging probes was used. The mice were anesthetized with 1% isoflurane. The breath of mice was monitored, and constant temperature was maintained throughout the scan. Three-dimensional T2 weighted fast spin echo sequence technology was used to obtain images. The imaging resolution and contrast of this technology were sufficient to automatically describe the volume of the mouse brain and substructures. The parameters were as follows: echo time (TE)/repetition time (TR) ^1/440/700 ms, resolution ^1/40.1×0.1×0.1 mm, echo train length ^1/44, average number ^1/42 and flip angle ^1/4408. The instrument contained a powerful linux cluster that can encode and run large-scale deformation diffusion metric maps (LDDMM) to obtain high-intensity standardized images. These transformations encoded morphological differences between images and analyzed based on deformation morphological measurements (DBM) to detect regional changes in brain volume. The volume of the whole brain (Brain), […] was analyzed.
The MRI scanning technology was used to analyze the morphological differences between the experimental object and the template image, and the LDDMM method was used to calculate and analyze the brain tissue structure of the mouse. The statistical results of the brain volume, striatum volume, and neurocortex volume of the test compound Example 1 are shown in FIG. 3, in which FIG. 3A is the statistical results of the whole brain volume, and FIG. 3B is the statistical results of striatum volume, and FIG. 3C is the statistical results of neurocortex volume.

**Q.** `O=c1cc(-c2ccc(N3CCCCC3)cc2)oc2c(O)c(O)ccc12` [Example 1, 7,8-dihydroxy-2-(4-(piperidin-1-yl)phenyl)-4H-chromen-4-one] was tested. Which “MRI volume, Neurocortex” value did it give?
**A.** The value was 18.90 ± 0.341** mm^3.

**Q.** And the “MRI volume, Striatum” value?
**A.** The value was 79.47 ± 1.079** mm^3.

**Q.** What about the “MRI volume, Whole brain” value of the same molecule?
**A.** The value was 460.47 ± 2.145** mm^3.

**Q.** What does the source list for `COc1ccc2c(=O)cc(-c3ccc(N4CCCCC4)cc3)oc2c1OC` [Example 2, 7,8-dimethoxy-2-(4-(piperidin-1-yl)phenyl)-4H-chromen-4-one]?
**A.** MRI volume, Neurocortex: 18.68 ± 0.598** mm^3; MRI volume, Striatum: 79.10 ± 0.976** mm^3; MRI volume, Whole brain: 449.97 ± 7.279** mm^3

These molecules were tested on N171-82Q HD mice (assay: High-altitude balance beam (11 mm) experiment 1, HD mice). Conditions: 5 mg/kg/d intragastric, 12 w.
Assay type: in vivo, mouse
Protocol: as §1, §2, §3, §4
a round balance beam with a length of 80 cm and a diameter of 11 mm was place at a height of about 50 cm from the ground. The following steps are the same as the slope balance beam experiment.

**Q.** Which “Time for crossing the beams, high-altitude balance beam (11 mm)” value (shortened to “Time for crossing the beams … (11 mm)”) does the source give for `O=c1cc(-c2ccc(N3CCCCC3)cc2)oc2c(O)c(O)ccc12` [Example 1, 7,8-dihydroxy-2-(4-(piperidin-1-yl)phenyl)-4H-chromen-4-one] here?
**A.** The value was 8.20 ± 1.64 s.

**Q.** How did the “Time for crossing the beams … (11 mm)” value turn out when `COc1ccc2c(=O)cc(-c3ccc(N4CCCCC4)cc3)oc2c1OC` [Example 2, 7,8-dimethoxy-2-(4-(piperidin-1-yl)phenyl)-4H-chromen-4-one] was run?
**A.** Its value is 8.98 ± 1.75 s.

Same assay, conditions: 5 mg/kg/d intragastric, 18 w

**Q.** Which “Time for crossing the beams … (11 mm)” value does the source give for `O=c1cc(-c2ccc(N3CCCCC3)cc2)oc2c(O)c(O)ccc12` [Example 1, 7,8-dihydroxy-2-(4-(piperidin-1-yl)phenyl)-4H-chromen-4-one] here?
**A.** Its value is 7.55 ± 2.42 s.

**Q.** With `COc1ccc2c(=O)cc(-c3ccc(N4CCCCC4)cc3)oc2c1OC` [Example 2, 7,8-dimethoxy-2-(4-(piperidin-1-yl)phenyl)-4H-chromen-4-one] as the molecule, how does the “Time for crossing the beams … (11 mm)” value read?
**A.** The value was 8.59 ± 2.18 s.

Same assay, conditions: 5 mg/kg/d intragastric, 24 w

**Q.** With `O=c1cc(-c2ccc(N3CCCCC3)cc2)oc2c(O)c(O)ccc12` [Example 1, 7,8-dihydroxy-2-(4-(piperidin-1-yl)phenyl)-4H-chromen-4-one] as the molecule, how does the “Time for crossing the beams … (11 mm)” value read?
**A.** Its value is 9.18 ± 3.84 s.

**Q.** How did the “Time for crossing the beams … (11 mm)” value turn out when `COc1ccc2c(=O)cc(-c3ccc(N4CCCCC4)cc3)oc2c1OC` [Example 2, 7,8-dimethoxy-2-(4-(piperidin-1-yl)phenyl)-4H-chromen-4-one] was run?
**A.** The value was 9.68 ± 2.97 s.
